The values below come from ChEMBL document CHEMBL3813665, “New cytotoxic and anti-inflammatory steroids from the soft coral Klyxum flaccidum” (Bioorg Med Chem Lett, 2016).

Assay [1] can be described thus: Antiinflammatory activity in human neutrophils assessed as inhibition of fMLP/CB-induced elastase release using MeO-Suc-Ala-Ala-Pro-Val-p-nitroanilide as substrate at 10 uM after 5 mins by […] analysis. The format is functional. The conditions noted are these: Neutrophil.
A short description of assay [2]: Antiinflammatory activity in human neutrophils assessed as inhibition of fMLP/CB-induced superoxide anion generation at 10 uM after 5 mins by ferricytochrome c based spectrophotometric analysis. The format is functional. As to conditions: Neutrophil.
Assay [3] in a line: Cytotoxicity against human DLD1 cells by Alamar blue assay. The format is functional, cell-based. The conditions noted are these: DLD-1.
Assay [4] concerns K562. The assay is described as follows: Cytotoxicity against human K562 cells by Alamar blue assay. It is filed as functional, cell-based.
For assay [5], the system named is A549. The assay is described as follows: Cytotoxicity against human A549 cells by Alamar blue assay. The format is functional, cell-based.
The test system of assay [6] is HT-29. Nature of the assay: Cytotoxicity against human HT-29 cells by Alamar blue assay. It is filed as functional, cell-based.
Assay [7] concerns P388. The assay is described as follows: Cytotoxicity against mouse P388 cells by Alamar blue assay. The format is functional, cell-based.
Assay [8] can be described thus: Antiinflammatory activity in human neutrophils assessed as inhibition of fMLP/CB-induced elastase release using MeO-Suc-Ala-Ala-Pro-Val-p-nitroanilide as substrate after 5 mins by […] analysis. As to conditions: Neutrophil. The format is functional, cell-based.
Assay [9] in a line: Antiinflammatory activity in human neutrophils assessed as inhibition of fMLP/CB-induced superoxide anion generation after 5 mins by ferricytochrome c based spectrophotometric analysis. The format is functional, cell-based. The conditions noted are these: Neutrophil.

For `CC(C)[C@@H](C)[C@@]1(C)C[C@@H]1[C@@H](C)[C@H]1CC[C@H]2[C@H]3[C@H]([C@H](O)C[C@]12C)[C@@]1(C)CC[C@H](O)CC1=C[C@@H]3O`, the inhibition at 10 µM is 21.8% in assay [1] and 11.1% in assay [2]. In addition, the IC50 was more than 40 µM in assay [3]; more than 40 µM in assay [4]; more than 40 µM in assay [5]; more than 40 µM in assay [6]; more than 40 µM in assay [7]; more than 10 µM in assay [8]. Besides, the IC50 in [9] is more than 10 µM.
Regarding `CC(C)[C@@H](C)[C@@]1(C)C[C@@H]1[C@@H](C)[C@H]1CC[C@H]2[C@@H]3[C@@H](O)C=C4C[C@@H](O)CC[C@]4(C)[C@@]3(O)[C@H](O)C[C@]12C`, the results for the inhibition at 10 µM in assay [1] and in assay [2] were 16.4% and -5.97%, respectively. In addition, the IC50 in [3] is more than 40 µM; in assay [4], more than 40 µM; in assay [5], more than 40 µM; in assay [6], more than 40 µM; in assay [7] it was more than 40 µM; in assay [8], more than 10 µM. The IC50 in assay [9] was more than 10 µM.
On to `CC(C)[C@@H](C)[C@H](C)C[C@@](C)(O)C1=CC[C@H]2[C@@H]3CC=C4C[C@@H](O)CC[C@]4(C)[C@H]3[C@H](O)C[C@]12C`, for which the results for the inhibition at 10 µM in assay [1] and in assay [2] were 114% and 76.3%, respectively. Moreover, the IC50 is more than 40 µM in [3]; 12.7 µM in [4]; more than 40 µM in assay [5]; 15.1 µM in [6]; 14.8 µM in assay [7]; 4.4 µM in assay [8]. Besides, in [9], the IC50 was 5.64 µM.
`CC(C)[C@@H](C)[C@@]1(C)C[C@@H]1[C@@H](C)[C@H]1CC[C@H]2[C@H]3[C@H]([C@H](O)[C@H](O)[C@]12C)[C@@]1(C)CC[C@H](O)CC1=C[C@@H]3O`: the IC50 is more than 40 µM in [3]; more than 40 µM in assay [4]; more than 40 µM in assay [5]; more than 40 µM in assay [6]; 15.5 µM in assay [7].
`COc1cccc2c1C(=O)c1c(O)c3c(c(O)c1C2=O)C[C@@](O)(C(=O)CO)C[C@@H]3O[C@H]1C[C@H](N)[C@H](O)[C@H](C)O1` [DOXORUBICIN]: the IC50 was 2.78 µM in [3]; 0.94 µM in assay [4]; 0.55 µM in assay [5]; 0.87 µM in assay [6]; 0.9 µM in [7].
Take `O=c1cc(N2CCOCC2)oc2c(-c3ccccc3)cccc12` [LY-294002]: the IC50 is 5.15 µM in assay [8] and 3.65 µM in [9].
